Measurements as given in the NIST ThermoML archive (doi:10.1021/acs.jced.7b00494).

Conditions: 99.6 kPa, Liquid; for kinematic viscosity: Capillary tube (Ostwald / Ubbelohde) method; for mass density: Vibrating tube method

CNC(C)=O [N-methylacetamide]
Conditions | kinematic viscosity [m2/s] | mass density [kg/m3]
308.15 K | 3.79e-06 | 945.85
313.15 K | 3.35e-06 | 941.63
318.15 K | 2.99e-06 | 937.44
323.15 K | 2.68e-06 | 933.24
328.15 K | 2.42e-06 | 929.07
